Test results taken from patent US20110301125A1, “Method for Treating Macular Degeneration” (SANOFI-AVENTIS, priority 2008, published 2011).
Entries after “also recorded” stand apart in the source; their conditions may differ.

Legend:
[1] = system: rat laser induced macular degeneration model (choroidal neovascularization); assay: Example 1: rat laser-induced choroidal neovascularization, histopathology of CNV plaque thickness (first set of study); assay type: in vivo, Brown Norway rats (Rattus norvegicus)
Text: Fifty male Brown Norway (strain BN/RijHsd) rats (Rattus norvegicus), 4-7 weeks old (50-124 g each), were purchased from Harlan (Indianapolis, Ind.), received in good condition. The animals were quarantined and acclimated for three (3) days. […] 50 animals were arbitrarily assigned to study groups and given permanent identification numbers.
The retinae (both eyes of each rat) were lased using a retinal lasering device with an attached Kowa PortSlit, SC14; Keeler Fison Indirect Ophthalmoscope (Lens 30 Diopter). Rats were briefly anesthetized and the eyes were dilated and coverslips were used as necessary to flatten the cornea. Each retina was lased with 186 mW, 75 μm spot sizes, 0.1 sec duration, applied to (approximately) 9-, 12- and 3-o'clock positions, 2-3 disk diameters from the optic nerve of each eye as feasible as determined by the surgeon. Rupture of the Bruch's membrane was identified by bubble formation, which occurred immediately at the site of photocoagulation. Rats were briefly anesthetized and administered fluoroscein to visualize the retinal vasculature post surgically and prior to necropsy. Representative photographs of the retinas were taken using a Kowa retinal camera for rodents. The photographs were taken to assure that vascular lesions were present immediately following the laser procedure and immediately prior to necropsy.
2-[4-(7-ethyl-5H-pyrrolo[2,3-b]pyrazin-6-yl)-phenyl]-propan-2-ol A and 2-(3-fluoro-phenyl)-4-methyl-pyrimidine-5-carboxylic acid indol-1-ylamide were formulated in vehicle twice weekly during the study. Vehicle consisted of 0.5% methylcellulose, 0.2% Tween 20 in sterile water for injection, and was formulated once weekly. 2-(3-fluoro-phenyl)-4-methyl-pyrimidine-5-carboxylic acid indol-1-ylamide test article was reconstituted in vehicle at 0.6, 2, and 6 mg/mL; 2-(3-fluoro-phenyl)-4-methyl-pyrimidine-5-carboxylic acid indol-1-ylamide control article was reconstituted at 2 mg/mL. All solutions were stored refrigerated at 2-8° C. between dose administrations, and mixed prior to each dose administration.
Animals were dosed via twice daily oral gavage at 5 mL/kg, starting immediately prior to lasing and continuing for 14 days. Dose volumes were recalculated weekly based on the most recent body weight. Note that animals were lased on two sequential days, but were sacrificed together on a single day to facilitate handling during necropsy. Therefore, animals of the first cohort (Groups 1-3) received an extra (29th) dose on the morning of Day 14 to permit terminal bleed and sacrifice within 2-4 hr of final dose administration.
The fundus was photographed on Day 0, at the time of lasing or shortly thereafter, and on Day 13 or 14, prior to sacrifice. At each time point, retinal vasculature was illuminated by intravenous (IV) injection of each animal, several minutes before photography, with 0.1 mL of a 10% solution of fluorescein dye. Each eye was dilated with a mydriatic and photographed with Kowa Small Animal Fundus Camera. The purpose of the fundus photography was to confirm the presence lesions following lasing and prior to necropsy. Any animal found not to have lesions would be removed from study and replaced.
Following fundus photography and terminal bleeds, animals were sacrificed per SOPs. […]
The slides were evaluated visually, qualitatively and semi-quantitatively. The nuclei of new vessels growing on the retinal were counted. […]

[2] = system: rat laser-induced macular degeneration model (choroidal neovascularization); assay: Example 3: DP antagonist, plaque volume of choroidal neovascularization in rat laser-induced macular degeneration model; assay type: in vivo, brown Norway rats (Rattus norvegicus); conditions: oral, twice each day on days -1 to 14; CNV volumes measured on day 14; FIG. 4
Text: FIG. 4 is a histogram of the results of an analysis of the effect of DP antagonist 2-(3-{6-[2-(2,4-dichloro-phenyl)-ethylamino]-2-methoxy-pyrimidin-4-yl}-phenyl)-2-methyl-propionic acid phosphoric acid salt (“Compound V” for purposes of this figure) on the plaque volume of choroidal neovascularization in the rat laser-induced macular degeneration model. Indomethacin was used as a positive control.
In this example, the effect of DP antagonist 2-(3-{6-[2-(2,4-dichloro-phenyl)-ethylamino]-2-methoxy-pyrimidin-4-yl}-phenyl)-2-methyl-propionic acid phosphoric acid salt (the compound) on plaque volume of choroidal neovascularization in the rat laser-induced macular degeneration model. As in the Examples discussed above, brown Norway rats (Rattus norvegicus) were used in this example. The rats received laser coagulation on day 0.[…] The compound was then administered orally twice each day on days −1 to 14. Indomethacin (positive control) was similarly administered twice daily. On day 14, the rats were sacrificed and choroidal neovascular (CNV) volumes were measured on day 14.

[3] = system: rat laser-induced macular degeneration model (choroidal neovascularization); assay: Example 5: hPGDS inhibitor, CNV volume by flat-mount fluorescence 3D modeling in rat laser-induced macular degeneration model; assay type: in vivo, BN rats (Rattus norvegicus; strain Brown Norway); conditions: oral, twice (or once) each day on days -1 to 7; CNV volumes measured on day 7; FIGS. 6A, 6B, 6C
Description: FIG. 6A is a histogram of the results of the effect of the hPDGS inhibitor 2-Pyridin-2-yl-pyrimidine-5-carboxylic acid 3-[5-(1-hydroxy-1-methyl-ethyl)-1,2,4-oxadiazol-3-yl]-benzylamide (“Compound VII” for purposes of this figure) against a laser-induced choroidal neovascularization in the rat: 1st dose-response study. 2-Pyridin-2-yl-pyrimidine-5-carboxylic acid 3-[5-(1-hydroxy-1-methyl-ethyl)-1,2,4-oxadiazol-3-yl]-benzylamide was administered orally twice each day on days −1 to 7. Doxycycline was used as a positive control.
FIG. 6B is a histogram of the results of the effect of the hPDGS inhibitor 2-pyridin-2-yl-pyrimidine-5-carboxylic acid 3-[5-(1-hydroxy-1-methyl-ethyl)-1,2,4-oxadiazol-3-yl]-benzylamide (“Compound VII” for purposes of this figure) against a laser-induced choroidal neovascularization in the rat: 2nd dose-response study. 2-pyridine-2-yl-pyrimidine-5-carboxylic acid 3-[5-(1-hydroxy-1-methyl-ethyl)-1,2,4-oxadiazol-3-yl]-benzylamide was administered orally twice each day on days −1 to 7. CELEBREX was used as a positive control. […]
In this example, the effect of hPGDS antagonist 2-Pyridin-2-yl-pyrimidine-5-carboxylic acid 3-[5-(1-hydroxy-1-methyl-ethyl)-1,2,4-oxadiazol-3-yl]-benzylamide was evaluated using the rat laser-induced macular degeneration model. […] Choroidal neovascular (CNV) volumes were measured on day 7. […]

[4] = system: rat laser-induced macular degeneration model (choroidal neovascularization); assay: Example 4: hPGDS inhibitor, plaque volume of choroidal neovascularization in rat laser-induced macular degeneration model; assay type: in vivo, brown Norway rats; conditions: oral, twice each day on days -1 to 14; measured after fourteen days; FIG. 5
Description: FIG. 5 is a histogram of the results of an analysis of the effect of the hPDGS inhibitor 4-Methyl-2-pyridin-2-yl-pyrimidine-5-carboxylic acid (5-fluoro-3-methyl-indol-1-yl)-amide (“Compound VI” for purposes of this figure) on the plaque volume of choroidal neovascularization in the rat laser-induced macular degeneration model. Indomethacin was used as a positive control.
In this example, the same experiment was performed with the rat laser-induced macular degeneration model to determine whether the hPDGS inhibitor 4-Methyl-2-pyridin-2-yl-pyrimidine-5-carboxylic acid (5-fluoro-3-methyl-indol-1-yl)-amide could limit the plaque volume of choroidal neovascularization
In particular, the hPDGS inhibitor 4-Methyl-2-pyridin-2-yl-pyrimidine-5-carboxylic acid (5-fluoro-3-methyl-indol-1-yl)-amide (the compound) was administered orally to the rats twice each day on days −1 to day 14. On day 0, a laser was used to induce choroidal neovascularization in the eye of the brown Norway rats. Indomethacin was administered to a control group similarly, i.e., twice each day from day −1 to day 14.
After fourteen days, the rats were sacrificed and the plaque volume of choroidal neovascularization in the eye was measured.

In the case of Cc1nc(-c2cccc(F)c2)ncc1C(=O)Nn1ccc2ccccc21 [2-(3-Fluoro-phenyl)-4-methyl-pyrimidine-5-carboxylic acid indol-1-ylamide], the “reduction of CNV plaque thickness” value ([1]; 10 mpk, PO) is reported as 40.7%.

COc1nc(NCCc2ccc(Cl)cc2Cl)cc(-c2cccc(C(C)(C)C(=O)O)c2)n1.O=P(O)(O)O [2-(3-{6-[2-(2,4-Dichloro-phenyl)-ethylamino]-2-methoxy-pyrimidin-4-yl}-phenyl)-2-methyl-propionic Acid Phosphoric Acid Salt] was tested, and the “limiting the volume of choroidal neovascularization” value [2] was “very effective”.

For CC(C)(O)c1nc(-c2cccc(CNC(=O)c3cnc(-c4ccccn4)nc3)c2)no1 [2-Pyridin-2-yl-pyrimidine-5-carboxylic acid 3-[5-(1-hydroxy-1-methyl-ethyl)-1,2,4-oxadiazol-3-yl]-benzylamide], the “limiting CNV volume” value [3] was “effective”.

In the case of CCc1c(-c2ccc(C(C)(C)O)cc2)[nH]c2nccnc12 [2-[4-(7-Ethyl-5H-pyrrolo[2,3-b]pyrazin-6-yl)-phenyl]-propan-2-ol], the “reduction of CNV plaque thickness” value ([1]; 3 mpk, PO) is reported as 11.3%, the “reduction of CNV plaque thickness” value ([1]; 10 mpk, PO) is reported as 36.6% and the “reduction of CNV plaque thickness” value ([1]; 30 mpk, PO) is reported as 32.2%.

In the case of Cc1nc(-c2ccccn2)ncc1C(=O)Nn1cc(C)c2cc(F)ccc21 [4-Methyl-2-pyridin-2-yl-pyrimidine-5-carboxylic acid (5-fluoro-3-methyl-indol-1-yl)-amide], the “limiting the plaque volume of choroidal neovascularization” value [4] is reported as “effective; also recorded: very effective”.

In the case of CC1(C)O[C@@H]2C[C@H]3[C@@H]4CCC5=CC(=O)C=C[C@]5(C)[C@@]4(F)[C@@H](O)C[C@]3(C)[C@]2(C(=O)CO)O1 [Triamcinolone Acetonide, reference compound], the “reduction of CNV plaque thickness” value ([1]; positive control, intravitreal injection) is reported as 25.9%.
